Results published in article PMC7699592, “Interaction between the Lentil Lipid Transfer Protein Lc-LTP2 and Its Novel Signal Ligand PI(4,5)P2” (Membranes, 2020).

What was measured:
Format in all cases: binding
[1] = target: T1, LTP from strawberry (strawberry LTP) (Fragaria x ananassa, UniProt Q8VX12); assay: protein-lipid overlay on membrane lipid strips; conditions: lipid immobilised, […] per spot; PBS; anti-Lc-LTP2 antibody detection
T1 construct: gene lpt46; recombinant, overexpressed in Escherichia coli, purified; four disulfide bonds
T1 sequence (Q8VX12 27-117): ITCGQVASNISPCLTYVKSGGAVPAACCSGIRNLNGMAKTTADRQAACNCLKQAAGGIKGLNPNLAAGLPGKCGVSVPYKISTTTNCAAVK

[2] = target: T2, LTP from mugwort (mugwort LTP) (Artemisia vulgaris, UniProt C4MGG9); assay: protein-lipid overlay on membrane lipid strips; conditions: lipid immobilised, 100 pM per spot; PBS; anti-Lc-LTP2 antibody detection
T2 construct: gene Art v 3; recombinant, overexpressed in Escherichia coli, purified; four disulfide bonds
T2 sequence (C4MGG9 24-114): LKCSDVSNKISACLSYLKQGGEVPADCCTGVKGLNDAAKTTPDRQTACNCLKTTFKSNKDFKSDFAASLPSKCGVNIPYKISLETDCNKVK

[3] = target: T3, LTP from ragweed (ragweed LTP) (Ambrosia artemisiifolia, UniProt O04004); assay: protein-lipid overlay on membrane lipid strips; conditions: lipid immobilised, 100 pM per spot; PBS; anti-Lc-LTP2 antibody detection
T3 construct: recombinant, overexpressed in Escherichia coli, purified; four disulfide bonds
T3 sequence (O04004 26-118): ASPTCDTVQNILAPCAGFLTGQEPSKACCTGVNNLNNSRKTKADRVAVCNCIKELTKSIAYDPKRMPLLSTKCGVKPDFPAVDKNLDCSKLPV

Lc-LTP2 [4] = target: T4, Lc-LTP2 (Lens culinaris, UniProt A0AT29, Y105A); assay: TNS fluorescent probe displacement; conditions: 4 uM LTP, 10 uM PI(4,5)P2, 3 uM TNS, pH 7.0, 25 °C
T4 construct: recombinant mature protein, overexpressed in Escherichia coli, purified; four disulfide bonds

Lc-LTP2 [5] = target: T5, Lc-LTP2 (Lens culinaris, UniProt A0AT29, R70A/Y105A); assay: TNS fluorescent probe displacement; conditions: 4 uM LTP, 10 uM PI(4,5)P2, 3 uM TNS, pH 7.0, 25 °C
T5 construct: recombinant mature protein, overexpressed in Escherichia coli, purified; four disulfide bonds

[6] = target: T2, LTP from mugwort (mugwort LTP); assay: TNS fluorescent probe displacement; conditions: 4 uM LTP, 10 uM PI(4,5)P2, 3 uM TNS, pH 7.0, 25 °C
[7] = target: T3, LTP from ragweed (ragweed LTP); assay: TNS fluorescent probe displacement; conditions: 4 uM LTP, 10 uM PI(4,5)P2, 3 uM TNS, pH 7.0, 25 °C
Lc-LTP2 [8] = target: T6, Lc-LTP2 (Lens culinaris, UniProt A0AT29); assay: TNS fluorescent probe displacement; conditions: 4 uM LTP, 10 uM PI(4,5)P2, 3 uM TNS, pH 7.0, 25 °C
T6 construct: recombinant mature protein, overexpressed in Escherichia coli, purified; four disulfide bonds
T6 sequence (A0AT29 26-118): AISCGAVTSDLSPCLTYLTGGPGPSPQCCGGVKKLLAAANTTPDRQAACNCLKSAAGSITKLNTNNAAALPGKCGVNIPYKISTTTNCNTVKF

[9] = target: T7, LTP from strawberry (strawberry LTP) (Fragaria x ananassa, UniProt Q8VX12); assay: TNS fluorescent probe displacement; conditions: 4 uM LTP, 10 uM PI(4,5)P2, 3 uM TNS, pH 7.0, 25 °C
T7 construct: recombinant, overexpressed in Escherichia coli, purified; four disulfide bonds

T4 sequence (A0AT29 26-118 Y105A): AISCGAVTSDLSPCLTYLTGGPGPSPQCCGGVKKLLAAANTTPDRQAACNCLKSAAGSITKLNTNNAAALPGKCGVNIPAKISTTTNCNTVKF
T5 sequence (A0AT29 26-118 R70A/Y105A): as the sequence (A0AT29 26-118 Y105A) above, with R45A counted along it

With `CCCCCCCCCCCCCCCC(=O)OC[C@H](COP(=O)(O)O[C@@H]1[C@H](O)[C@H](O)[C@@H](OP(=O)(O)O)[C@H](OP(=O)(O)O)[C@H]1O)OC(=O)CCCCCCCCCCCCCCC` [PI(4,5)P2 diC16] the “protein-lipid overlay on membrane lipid strips” value (“protein-lipid overlay” for short) [1] was “Protein-lipid overlay assays with other LTPs from the abovementioned plants led to the same results”, the “protein-lipid overlay” value [2] was “Protein-lipid overlay assays with other LTPs from the abovementioned plants led to the same results” and the “protein-lipid overlay” value [3] was “Protein-lipid overlay assays with other LTPs from the abovementioned plants led to the same results”.

With PI(4,5)P2 the “% reduction of LTP-TNS fluorescence” value (Lc-LTP2 [4]) was 8%, the “% reduction of LTP-TNS fluorescence” value (Lc-LTP2 [5]) was 16% and the “% reduction of LTP-TNS fluorescence” value [6] was 11%. For the same compound, the “% reduction of LTP-TNS fluorescence” value [7] was 9%, the “% reduction of LTP-TNS fluorescence” value (Lc-LTP2 [8]) was 21% and the “% reduction of LTP-TNS fluorescence” value [9] was 14%.
